Assay results taken from patent publication US20170172880A1, “Fast Dissolving Peroxymonosulfate Composition” (Colgate-Palmolive Company, priority 2015, published 2017).

Assay: In vitro whitening test on coffee-stained bovine teeth (ΔW*)
Conditions: Example 6, MPS added to 2% hydrogen peroxide mouthwash
Method: The bovine teeth have initial L values of 57-65. The teeth are submerged in deionized water, then removed and soaked for 2 minutes in 20 mL of the test solution. The teeth are then rinsed three times with deionized water. Each such treatment cycle is repeated fourteen times, and after every two cycles values for L*, a* and b* are measured. These figures are used to calculate a whiteness score, W*, which is a measure of overall color change relative to pure white:
ΔW*=W*(treated)−W*(baseline)
The resulting instant whitening mouthwash is compared to a comparative 2% hydrogen peroxide whitening mouthwash composition using the procedure described in Example 5.
The comparative HP mouthwash is compared to the MPS mouthwash and the MPS/HP mouthwash in side-by-side experiments.

O=S(=O)([O-])O[O-].[K+].[K+] [MPS, potassium peroxymonosulfate]
whitening effect when added to a hydrogen peroxide mouthwash: significant and unexpected additive whitening effect
